# Results from patent US9000029B2, “Proline sulfonamide derivatives as orexin receptor antagonists” (Actelion Pharmaceuticals Ltd., priority 2010, dated 2015).
# Like-named read-outs stand apart in the source and are kept apart here.
# Legend:
# [1] = molecular target: human orexin-1 receptor (Homo sapiens (Human), UniProt O43613); experiment: Intracellular calcium measurements (FLIPR), antagonism of orexin-A response; format: cell-based; conditions: CHO cells, 3 nM orexin-A, read-out: IC50 Ox1
# Procedure: (§1) In Vitro Assay: Intracellular Calcium Measurements:
# (§2) Chinese hamster ovary (CHO) cells expressing the human orexin-1 receptor and the human orexin-2 receptor, respectively, are grown in culture medium (Ham F-12 with L-Glutamine) containing 300 μg/ml G418, 100 U/ml penicillin, 100 μg/ml streptomycin and 10% heat inactivated fetal calf serum (FCS). The cells are seeded at 20'000 cells/well into 384-well black clear bottom sterile plates (Greiner). The seeded plates are incubated overnight at 37° C. in 5% CO2.
# (§3) Human orexin-A as an agonist is prepared as 1 mM stock solution in MeOH: water (1:1), diluted in HBSS containing 0.1% bovine serum albumin (BSA), NaHCO3: 0.375 g/l and 20 mM HEPES for use in the assay at a final concentration of 3 nM.
# (§4) Antagonists are prepared as 10 mM stock solution in DMSO, then diluted in 384-well plates using DMSO followed by a transfer of the dilutions into in HBSS containing 0.1% bovine serum albumin (BSA), NaHCO3: 0.375 g/l and 20 mM HEPES. On the day of the assay, 50 μl of staining buffer (HBSS containing 1% FCS, 20 mM HEPES, NaHCO3: 0.375 g/l, 5 mM probenecid (Sigma) and 3 μM of the fluorescent calcium indicator fluo-4 AM (1 mM stock solution in DMSO, containing 10% pluronic) is added to each well. The 384-well cell-plates are incubated for 50 min at 37° C. in 5% CO2 followed by equilibration at RT for 30 min before measurement.
# (§5) Within the Fluorescent Imaging Plate Reader (FLIPR Tetra, Molecular Devices), antagonists are added to the plate in a volume of 10 μl/well, incubated for 10 min or (where explicitly indicated) for 120 min and finally 10 μl/well of agonist is added. Fluorescence is measured for each well at 1 second intervals, and the height of each fluorescence peak is compared to the height of the fluorescence peak induced by 3 nM orexin-A with vehicle in place of antagonist. The IC50 value (the concentration of compound needed to inhibit 50% of the agonistic response) is determined and may be normalized using the obtained IC50 value of a on-plate reference compound. Optimized conditions were achieved by adjustment of pipetting speed and cell splitting regime. The calculated IC50 values may fluctuate depending on the daily cellular assay performance. Fluctuations of this kind are known to those skilled in the art.
# [2] = molecular target: human orexin-2 receptor (Homo sapiens (Human), UniProt O43614); experiment: as above; format: cell-based; conditions: CHO cells, 3 nM orexin-A, read-out: IC50 Ox2
# Sequence of human orexin-2 receptor (O43614 whole entry): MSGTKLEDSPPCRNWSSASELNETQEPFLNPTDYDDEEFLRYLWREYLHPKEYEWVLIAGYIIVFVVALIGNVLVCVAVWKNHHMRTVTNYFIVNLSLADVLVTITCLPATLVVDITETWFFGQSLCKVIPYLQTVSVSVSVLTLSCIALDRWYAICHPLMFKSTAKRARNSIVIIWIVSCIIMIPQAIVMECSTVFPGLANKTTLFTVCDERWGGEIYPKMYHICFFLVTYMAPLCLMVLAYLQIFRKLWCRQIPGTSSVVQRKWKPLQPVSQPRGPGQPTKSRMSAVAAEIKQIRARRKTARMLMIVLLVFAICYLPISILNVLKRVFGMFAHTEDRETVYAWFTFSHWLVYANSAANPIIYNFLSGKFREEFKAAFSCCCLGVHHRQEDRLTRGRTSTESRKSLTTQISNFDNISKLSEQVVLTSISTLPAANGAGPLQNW
# Procedure: as §1, §2, §3, §4, §5
# [3] = compound incubation time of 120 min
# Sequence of human orexin-1 receptor (O43613 whole entry): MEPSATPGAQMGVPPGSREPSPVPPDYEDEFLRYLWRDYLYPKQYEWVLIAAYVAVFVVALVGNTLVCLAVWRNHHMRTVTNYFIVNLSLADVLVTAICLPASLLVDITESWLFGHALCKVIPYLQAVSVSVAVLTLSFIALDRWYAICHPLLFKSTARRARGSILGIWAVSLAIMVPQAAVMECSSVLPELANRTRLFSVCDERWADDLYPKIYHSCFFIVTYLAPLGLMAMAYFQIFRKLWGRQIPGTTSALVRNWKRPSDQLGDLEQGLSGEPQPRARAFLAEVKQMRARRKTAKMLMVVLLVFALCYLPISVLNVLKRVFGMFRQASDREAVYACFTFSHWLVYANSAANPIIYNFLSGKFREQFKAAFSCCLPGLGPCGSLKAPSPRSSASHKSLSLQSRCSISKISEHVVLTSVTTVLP
smiles,measurement,setting,value
"COc1ccc(S(=O)(=O)N2CCC[C@H]2C(=O)Nc2cccc(SC)c2)cc1OC [Example 10, (S)-1-(3,4-Dimethoxy-benzenesulfonyl)-pyrrolidine-2-carboxylic acid (3-methylsulfanyl-phenyl)-amide]",IC50,[1]; compound incubation 10 min,57 nM
same,IC50,[2]; compound incubation 10 min,3 nM
"C=Cc1ccc(S(=O)(=O)N2CCC[C@H]2C(=O)Nc2cc(C)cc(C)c2)cc1 [Example 47, (S)-1-(4-Vinyl-benzenesulfonyl)-pyrrolidine-2-carboxylic acid (3,5-dimethyl-phenyl)-amide]",IC50,[1]; [3],189 nM
same,IC50,[2]; [3],92 nM
"CSc1cccc(NC(=O)[C@@H]2CCCN2S(=O)(=O)c2ccc(C)c(Cl)c2)c1 [Example 12, (S)-1-(3-Chloro-4-methyl-benzenesulfonyl)-pyrrolidine-2-carboxylic acid (3-methylsulfanyl-phenyl)-amide]",IC50,[1]; compound incubation 10 min,5 nM
same,IC50,[2]; compound incubation 10 min,3 nM
"COc1ccc(S(=O)(=O)N2CCC[C@H]2C(=O)Nc2ccc(F)c(F)c2)cc1 [Example 36, (S)-1-(4-Methoxy-benzenesulfonyl)-pyrrolidine-2-carboxylic acid (3,4-difluoro-phenyl)-amide]",IC50,[1]; compound incubation 10 min,569 nM
same,IC50,[2]; compound incubation 10 min,136 nM
"Cc1cc(C)cc(NC(=O)[C@@H]2CCCN2S(=O)(=O)c2ccc(Br)cc2Cl)c1 [Example 58, (S)-1-(4-Bromo-2-chloro-benzenesulfonyl)-pyrrolidine-2-carboxylic acid (3,5-dimethyl-phenyl)-amide]",IC50,[1]; [3],179 nM
same,IC50,[2]; [3],106 nM
"Cc1cc(C)cc(NC(=O)[C@@H]2CCCN2S(=O)(=O)c2ccc(Cl)cc2)c1 [Example 46, (S)-1-(4-Chloro-benzenesulfonyl)-pyrrolidine-2-carboxylic acid (3,5-dimethyl-phenyl)-amide]",IC50,[1]; [3],35 nM
same,IC50,[2]; [3],32 nM
"COc1ccc(C)cc1S(=O)(=O)N1CCC[C@H]1C(=O)Nc1cc(C)cc(C)c1 [Example 48, (S)-1-(2-Methoxy-5-methyl-benzenesulfonyl)-pyrrolidine-2-carboxylic acid (3,5-dimethyl-phenyl)-amide]",IC50,[1]; [3],43 nM
same,IC50,[2]; [3],4 nM
"COc1ccc(S(=O)(=O)N2CCC[C@H]2C(=O)Nc2cccc3ccccc23)cc1 [Example 24, (S)-1-(4-Methoxy-benzenesulfonyl)-pyrrolidine-2-carboxylic acid naphthalen-1-ylamide]",IC50,[1]; compound incubation 10 min,269 nM
same,IC50,[2]; compound incubation 10 min,171 nM
"CSc1cccc(NC(=O)[C@@H]2CCCN2S(=O)(=O)c2ccc(Br)s2)c1 [Example 1, (S)-1-(5-Bromo-thiophene-2-sulfonyl)-pyrrolidine-2-carboxylic acid (3-methylsulfanyl-phenyl)-amide]",IC50,[1]; compound incubation 10 min,20 nM
same,IC50,[2]; compound incubation 10 min,10 nM
"Cc1cc(C)cc(NC(=O)[C@@H]2CCCN2S(=O)(=O)c2ccc3ccccc3c2)c1 [Example 43, (S)-1-(Naphthalene-2-sulfonyl)-pyrrolidine-2-carboxylic acid (3,5-dimethyl-phenyl)-amide]",IC50,[1]; [3],73 nM
same,IC50,[2]; [3],25 nM
"CSc1cccc(NC(=O)[C@@H]2CCCN2S(=O)(=O)c2ccc(Br)cc2)c1 [Example 13, (S)-1-(4-Bromo-benzenesulfonyl)-pyrrolidine-2-carboxylic acid (3-methylsulfanyl-phenyl)-amide]",IC50,[1]; compound incubation 10 min,22 nM
same,IC50,[2]; compound incubation 10 min,10 nM
"COc1ccc(S(=O)(=O)N2CCC[C@H]2C(=O)Nc2ccc(F)c(C)c2)cc1 [Example 37, (S)-1-(4-Methoxy-benzenesulfonyl)-pyrrolidine-2-carboxylic acid (4-fluoro-3-methyl-phenyl)-amide]",IC50,[1]; compound incubation 10 min,70 nM
same,IC50,[2]; compound incubation 10 min,28 nM
"COc1ccc(S(=O)(=O)N2CCC[C@H]2C(=O)Nc2cccc(N(C)C)c2)cc1 [Example 22, (S)-1-(4-Methoxy-benzenesulfonyl)-pyrrolidine-2-carboxylic acid (3-dimethylamino-phenyl)-amide]",IC50,[1]; compound incubation 10 min,234 nM
same,IC50,[2]; compound incubation 10 min,19 nM
"CSc1cccc(NC(=O)[C@@H]2CCCN2S(=O)(=O)c2ccc3c(c2)OCCN3C)c1 [Example 5, (S)-1-(4-Methyl-3,4-dihydro-2H-benzo[1,4]oxazine-7-sulfonyl)-pyrrolidine-2-carboxylic acid (3-methylsulfanyl-phenyl)-amide]",IC50,[1]; compound incubation 10 min,128 nM
same,IC50,[2]; compound incubation 10 min,27 nM
"CSc1cccc(NC(=O)[C@@H]2CCCN2S(=O)(=O)c2cccc(Br)c2)c1 [Example 11, (S)-1-(3-Bromo-benzenesulfonyl)-pyrrolidine-2-carboxylic acid (3-methylsulfanyl-phenyl)-amide]",IC50,[1]; compound incubation 10 min,7 nM
same,IC50,[2]; compound incubation 10 min,2 nM
"COc1ccc(S(=O)(=O)N2CCC[C@H]2C(=O)Nc2cccc(C)c2)cc1 [Example 20, (S)-1-(4-Methoxy-benzenesulfonyl)-pyrrolidine-2-carboxylic acid m-tolylamide]",IC50,[1]; compound incubation 10 min,214 nM
same,IC50,[2]; compound incubation 10 min,17 nM
"COc1ccc(S(=O)(=O)N2CCC[C@H]2C(=O)Nc2cc(C)ccc2Cl)cc1 [Example 28, (S)-1-(4-Methoxy-benzenesulfonyl)-pyrrolidine-2-carboxylic acid (2-chloro-5-methyl-phenyl)-amide]",IC50,[1]; compound incubation 10 min,305 nM
same,IC50,[2]; compound incubation 10 min,224 nM
"COc1ccc(S(=O)(=O)N2CCC[C@H]2C(=O)Nc2cc(OC)ccc2Cl)cc1 [Example 29, (S)-1-(4-Methoxy-benzenesulfonyl)-pyrrolidine-2-carboxylic acid (2-chloro-5-methoxy-phenyl)-amide]",IC50,[1]; compound incubation 10 min,625 nM
same,IC50,[2]; compound incubation 10 min,128 nM
"COc1ccc(S(=O)(=O)N2CCC[C@H]2C(=O)Nc2ccc(F)c(Cl)c2)cc1 [Example 31, (S)-1-(4-Methoxy-benzenesulfonyl)-pyrrolidine-2-carboxylic acid (3-chloro-4-fluoro-phenyl)-amide]",IC50,[1]; compound incubation 10 min,74 nM
same,IC50,[2]; compound incubation 10 min,34 nM
"Cc1cc(C)cc(NC(=O)[C@@H]2CCCN2S(=O)(=O)c2ccc(C)cc2C)c1 [Example 56, (S)-1-(2,4-Dimethyl-benzenesulfonyl)-pyrrolidine-2-carboxylic acid (3,5-dimethyl-phenyl)-amide]",IC50,[1]; [3],211 nM
same,IC50,[2]; [3],108 nM
"COc1ccc(S(=O)(=O)N2CCC[C@H]2C(=O)Nc2cccc(OC)c2)cc1 [Example 21, (S)-1-(4-Methoxy-benzenesulfonyl)-pyrrolidine-2-carboxylic acid (3-methoxy-phenyl)-amide]",IC50,[1]; compound incubation 10 min,182 nM
same,IC50,[2]; compound incubation 10 min,47 nM
"COc1ccc(S(=O)(=O)N2CCC[C@H]2C(=O)Nc2cccc(C#N)c2)cc1 [Example 25, (S)-1-(4-Methoxy-benzenesulfonyl)-pyrrolidine-2-carboxylic acid (3-cyano-phenyl)-amide]",IC50,[1]; compound incubation 10 min,994 nM
same,IC50,[2]; compound incubation 10 min,98 nM
"CSc1cccc(NC(=O)[C@@H]2CCCN2S(=O)(=O)c2ccc(Cl)cc2)c1 [Example 9, (S)-1-(4-Chloro-benzenesulfonyl)-pyrrolidine-2-carboxylic acid (3-methylsulfanyl-phenyl)-amide]",IC50,[1]; compound incubation 10 min,15 nM
same,IC50,[2]; compound incubation 10 min,9 nM
"COc1ccc(S(=O)(=O)N2CCC[C@H]2C(=O)Nc2cccc(SC)c2)cc1 [Example 6, (S)-1-(4-Methoxy-benzenesulfonyl)-pyrrolidine-2-carboxylic acid (3-methylsulfanyl-phenyl)-amide]",IC50,[1]; compound incubation 10 min,21 nM
same,IC50,[2]; compound incubation 10 min,3 nM
"Cc1cc(C)cc(NC(=O)[C@@H]2CCCN2S(=O)(=O)c2ccc(C(F)(F)F)cc2Cl)c1 [Example 51, (S)-1-(2-Chloro-4-trifluoromethyl-benzenesulfonyl)-pyrrolidine-2-carboxylic acid (3,5-dimethyl-phenyl)-amide]",IC50,[1]; [3],80 nM
same,IC50,[2]; [3],14 nM
"COc1ccc(S(=O)(=O)N2CCC[C@H]2C(=O)Nc2ccc3c(c2)CCC3)cc1 [Example 33, (S)-1-(4-Methoxy-benzenesulfonyl)-pyrrolidine-2-carboxylic acid indan-5-ylamide]",IC50,[1]; compound incubation 10 min,129 nM
same,IC50,[2]; compound incubation 10 min,12 nM
"CCCc1ccc(S(=O)(=O)N2CCC[C@H]2C(=O)Nc2cccc(SC)c2)cc1 [Example 4, (S)-1-(4-Propyl-benzenesulfonyl)-pyrrolidine-2-carboxylic acid (3-methylsulfanyl-phenyl)-amide]",IC50,[1]; compound incubation 10 min,91 nM
same,IC50,[2]; compound incubation 10 min,47 nM
"COc1ccc(S(=O)(=O)N2CCC[C@H]2C(=O)Nc2cccc(Br)c2)cc1 [Example 19, (S)-1-(4-Methoxy-benzenesulfonyl)-pyrrolidine-2-carboxylic acid (3-bromo-phenyl)-amide]",IC50,[1]; compound incubation 10 min,79 nM
same,IC50,[2]; compound incubation 10 min,37 nM
